This passage reports electrical conductivity and thermal conductivity results from the NIST ThermoML archive (doi:10.1016/j.tca.2016.05.006).

Numbers after ± are expanded uncertainties.

The conditions of the data set: 298.15 K, 101.33 kPa, Liquid.

For the molecule `OCCO` [1,2-ethanediol], the electrical conductivity (Alternating current cell with electrodes) came out at 9.2e-05 ± 2e-06 S/m. Also, under “Transient line heat source”, the thermal conductivity was found to be 0.2438 ± 0.011 W/m/K.
